Measured values taken from the supplement of paper PMC10307832.

What was measured:
Experiment in all cases: relative viability (nuclei count vs DMSO), 5 days (fraction); higher = more cells survive
A-427 = tested on: A-427
How it was run: (§1)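 For relative viability, nuclei counts in treated wells were divided by those in vehicle wells. Lung cancer cell lines had been pin-tool dosed in 1536-well plates the day after seeding and cultured for 5 days, then fixed and stained in one step (final 0.05% Triton X-100, 1% formaldehyde, 1 ug/ml Hoechst) and imaged at 4×. Doses were one drug alone or a fixed anchor-drug dose plus five library-drug doses (not always all listed) in √10 steps, and values are duplicate-plate medians.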

HCC-15 = tested on: HCC-15
How it was run: as §1

HCC-78 = tested on: HCC-78
How it was run: as §1

HOP-62 = tested on: HOP-62
How it was run: as §1

LC-2-ad = tested on: LC-2-ad
How it was run: as §1

LOU-NH91 = tested on: LOU-NH91
How it was run: as §1

LXF-289 = tested on: LXF-289
How it was run: as §1

NCI-H1734 = tested on: NCI-H1734
How it was run: as §1

NCI-H1755 = tested on: NCI-H1755
How it was run: as §1

NCI-H1792 = tested on: NCI-H1792
How it was run: as §1

NCI-H1915 = tested on: NCI-H1915
How it was run: as §1

NCI-H1975 = tested on: NCI-H1975
How it was run: as §1

NCI-H2126 = tested on: NCI-H2126
How it was run: as §1

NCI-H2228 = tested on: NCI-H2228
How it was run: as §1

NCI-H2342 = tested on: NCI-H2342
How it was run: as §1

NCI-H2347 = tested on: NCI-H2347
How it was run: as §1

NCI-H358 = tested on: NCI-H358
How it was run: as §1

NCI-H460 = tested on: NCI-H460
How it was run: as §1

NCI-H522 = tested on: NCI-H522
How it was run: as §1

NCI-H647 = tested on: NCI-H647
How it was run: as §1

PC-3 [JPC-3] = tested on: PC-3 [JPC-3]
How it was run: as §1

RERF-LC-KJ = tested on: RERF-LC-KJ
How it was run: as §1

SK-LU-1 = tested on: SK-LU-1
How it was run: as §1

SW 1573 = tested on: SW 1573
How it was run: as §1

SMILES: Clc1ccc(Nc2nnc(Cc3ccncc3)c3ccccc23)cc1 [Vatalanib] + CC(=O)c1c(C)c2cnc(Nc3ccc(N4CCNCC4)cn3)nc2n(C2CCCC2)c1=O [Palbociclib] (partner 0.5 µM)
- relative viability (A-427; first compound 0.04 µM): 0.568
- relative viability (A-427; first compound 0.1265 µM): 0.482
- relative viability (A-427; first compound 0.4 µM): 0.546
- relative viability (A-427; first compound 4 µM): 0.508
- relative viability (HCC-15; first compound 0.04 µM): 0.711
- relative viability (HCC-15; first compound 0.1265 µM): 0.676
- relative viability (HCC-15; first compound 0.4 µM): 0.759
- relative viability (HCC-15; first compound 1.265 µM): 0.691
- relative viability (HCC-15; first compound 4 µM): 0.668
- relative viability (HCC-78; first compound 0.04 µM): 0.471
- relative viability (HCC-78; first compound 0.1265 µM): 0.459
- relative viability (HCC-78; first compound 0.4 µM): 0.473
- relative viability (HCC-78; first compound 1.265 µM): 0.422
- relative viability (HCC-78; first compound 4 µM): 0.485
- relative viability (HOP-62; first compound 0.04 µM): 0.459
- relative viability (HOP-62; first compound 0.1265 µM): 0.436
- relative viability (HOP-62; first compound 0.4 µM): 0.417
- relative viability (HOP-62; first compound 1.265 µM): 0.45
- relative viability (HOP-62; first compound 4 µM): 0.481
- relative viability (LC-2-ad; first compound 0.04 µM): 0.494
- relative viability (LC-2-ad; first compound 0.1265 µM): 0.448
- relative viability (LC-2-ad; first compound 0.4 µM): 0.544
- relative viability (LC-2-ad; first compound 1.265 µM): 0.452
- relative viability (LC-2-ad; first compound 4 µM): 0.471
- relative viability (LOU-NH91; first compound 0.04 µM): 0.549
- relative viability (LOU-NH91; first compound 0.1265 µM): 0.483
- relative viability (LOU-NH91; first compound 0.4 µM): 0.542
- relative viability (LOU-NH91; first compound 1.265 µM): 0.457
- relative viability (LOU-NH91; first compound 4 µM): 0.55
- relative viability (LXF-289; first compound 0.04 µM): 0.611
- relative viability (LXF-289; first compound 0.1265 µM): 0.544
- relative viability (LXF-289; first compound 0.4 µM): 0.599
- relative viability (LXF-289; first compound 1.265 µM): 0.585
- relative viability (LXF-289; first compound 4 µM): 0.556
- relative viability (NCI-H1734; first compound 0.04 µM): 0.338
- relative viability (NCI-H1734; first compound 0.1265 µM): 0.314
- relative viability (NCI-H1734; first compound 0.4 µM): 0.396
- relative viability (NCI-H1734; first compound 1.265 µM): 0.33
- relative viability (NCI-H1734; first compound 4 µM): 0.336
- relative viability (NCI-H1755; first compound 0.04 µM): 0.473
- relative viability (NCI-H1755; first compound 0.1265 µM): 0.474
- relative viability (NCI-H1755; first compound 0.4 µM): 0.457
- relative viability (NCI-H1755; first compound 1.265 µM): 0.445
- relative viability (NCI-H1755; first compound 4 µM): 0.425
- relative viability (NCI-H1792; first compound 0.04 µM): 0.613
- relative viability (NCI-H1792; first compound 0.1265 µM): 0.543
- relative viability (NCI-H1792; first compound 0.4 µM): 0.637
- relative viability (NCI-H1792; first compound 1.265 µM): 0.738
- relative viability (NCI-H1792; first compound 4 µM): 0.687
- relative viability (NCI-H1915; first compound 0.04 µM): 0.533
- relative viability (NCI-H1915; first compound 0.1265 µM): 0.526
- relative viability (NCI-H1915; first compound 0.4 µM): 0.516
- relative viability (NCI-H1915; first compound 1.265 µM): 0.511
- relative viability (NCI-H1915; first compound 4 µM): 0.511
- relative viability (NCI-H1975; first compound 0.04 µM): 0.651
- relative viability (NCI-H1975; first compound 0.1265 µM): 0.5
- relative viability (NCI-H1975; first compound 0.4 µM): 0.768
- relative viability (NCI-H1975; first compound 1.265 µM): 0.528
- relative viability (NCI-H1975; first compound 4 µM): 0.489
- relative viability (NCI-H2126; first compound 0.04 µM): 0.314
- relative viability (NCI-H2126; first compound 0.1265 µM): 0.34
- relative viability (NCI-H2126; first compound 0.4 µM): 0.383
- relative viability (NCI-H2126; first compound 1.265 µM): 0.335
- relative viability (NCI-H2126; first compound 4 µM): 0.363
- relative viability (NCI-H2228; first compound 0.04 µM): 0.795
- relative viability (NCI-H2228; first compound 0.1265 µM): 0.838
- relative viability (NCI-H2228; first compound 0.4 µM): 0.806
- relative viability (NCI-H2228; first compound 1.265 µM): 0.765
- relative viability (NCI-H2228; first compound 4 µM): 0.612
- relative viability (NCI-H2342; first compound 0.04 µM): 0.489
- relative viability (NCI-H2342; first compound 0.1265 µM): 0.507
- relative viability (NCI-H2342; first compound 0.4 µM): 0.46
- relative viability (NCI-H2342; first compound 1.265 µM): 0.579
- relative viability (NCI-H2342; first compound 4 µM): 0.593
- relative viability (NCI-H2347; first compound 0.04 µM): 0.428
- relative viability (NCI-H2347; first compound 0.1265 µM): 0.423
- relative viability (NCI-H2347; first compound 0.4 µM): 0.494
- relative viability (NCI-H2347; first compound 1.265 µM): 0.418
- relative viability (NCI-H2347; first compound 4 µM): 0.446
- relative viability (NCI-H358; first compound 0.04 µM): 0.139
- relative viability (NCI-H358; first compound 0.1265 µM): 0.131
- relative viability (NCI-H358; first compound 0.4 µM): 0.149
- relative viability (NCI-H358; first compound 1.265 µM): 0.123
- relative viability (NCI-H358; first compound 4 µM): 0.136
- relative viability (NCI-H460; first compound 0.04 µM): 0.152
- relative viability (NCI-H460; first compound 0.1265 µM): 0.169
- relative viability (NCI-H460; first compound 0.4 µM): 0.211
- relative viability (NCI-H460; first compound 1.265 µM): 0.148
- relative viability (NCI-H460; first compound 4 µM): 0.0922
- relative viability (NCI-H522; first compound 0.04 µM): 0.872
- relative viability (NCI-H522; first compound 0.1265 µM): 1.06
- relative viability (NCI-H522; first compound 0.4 µM): 1.18
- relative viability (NCI-H522; first compound 1.265 µM): 1.06
- relative viability (NCI-H522; first compound 4 µM): 0.993
- relative viability (NCI-H647; first compound 0.04 µM): 0.415
- relative viability (NCI-H647; first compound 0.1265 µM): 0.34
- relative viability (NCI-H647; first compound 0.4 µM): 0.37
- relative viability (NCI-H647; first compound 1.265 µM): 0.37
- relative viability (NCI-H647; first compound 4 µM): 0.386
- relative viability (PC-3 [JPC-3]; first compound 0.04 µM): 0.515
- relative viability (PC-3 [JPC-3]; first compound 0.1265 µM): 0.549
- relative viability (PC-3 [JPC-3]; first compound 0.4 µM): 0.573
- relative viability (PC-3 [JPC-3]; first compound 1.265 µM): 0.538
- relative viability (PC-3 [JPC-3]; first compound 4 µM): 0.544
- relative viability (RERF-LC-KJ; first compound 0.04 µM): 1.08
- relative viability (RERF-LC-KJ; first compound 0.1265 µM): 1.05
- relative viability (RERF-LC-KJ; first compound 0.4 µM): 1.02
- relative viability (RERF-LC-KJ; first compound 1.265 µM): 1.02
- relative viability (RERF-LC-KJ; first compound 4 µM): 0.903
- relative viability (SK-LU-1; first compound 0.04 µM): 0.398
- relative viability (SK-LU-1; first compound 0.1265 µM): 0.415
- relative viability (SK-LU-1; first compound 0.4 µM): 0.499
- relative viability (SK-LU-1; first compound 1.265 µM): 0.415
- relative viability (SK-LU-1; first compound 4 µM): 0.385
- relative viability (SW 1573; first compound 0.1265 µM): 0.403
- relative viability (SW 1573; first compound 0.4 µM): 0.461
- relative viability (SW 1573; first compound 1.265 µM): 0.361
- relative viability (SW 1573; first compound 4 µM): 0.368
